Source: patent US7153977B2, “Ligands and methods for preparing same” (National University of Singapore, priority 2000, dated 2006)
Where two headings read alike, the source gives them in different places.

How the values were obtained:
[1] = test system: es nucleoside transporter (human HL-60 promyelocytic leukemia plasma membranes); assay: 3H-CrMCC binding to HL-60 plasma membranes
Procedure: This experiment was conducted to investigate the rate of ^3H-CrMCC binding to the unsealed plasma membranes of HL-60 cells. […] The binding reaction in FIG. 9 was terminated by membrane filtration method and the data were corrected for filter blanks.
It is important to confirm the binding of ^3H-CrMCC to the unsealed HL-60 plasma membranes is indeed irreversible. Purified unsealed HL-60 plasma membranes were incubated with 30 μM of ^3H-CrMCC for 10 min. After which the mixtures were diluted 20 folds and the diluted mixtures were sat at room temperature for various time intervals to allow dissociation to occur. […] The dissociation reaction shown in FIG. 10 was terminated by membrane filtration method and the data were corrected for filter blanks.
Purified unsealed HL-60 plasma membranes were incubated with 30 μM of ^3H-CrMCC for 5 min. The reaction mixture was then diluted 20-fold with reaction buffer of various pH values (pH 0.85 to 7.5). The dissociation reaction was terminated by membrane filtration method. The data were corrected for filter blanks.

es transporter protein = biological target: T1, es transporter protein (Mus musculus, UniProt Q9JIM1); conditions: Lee et al. (1995), cited from earlier work
T1 sequence (Q9JIM1 1-460): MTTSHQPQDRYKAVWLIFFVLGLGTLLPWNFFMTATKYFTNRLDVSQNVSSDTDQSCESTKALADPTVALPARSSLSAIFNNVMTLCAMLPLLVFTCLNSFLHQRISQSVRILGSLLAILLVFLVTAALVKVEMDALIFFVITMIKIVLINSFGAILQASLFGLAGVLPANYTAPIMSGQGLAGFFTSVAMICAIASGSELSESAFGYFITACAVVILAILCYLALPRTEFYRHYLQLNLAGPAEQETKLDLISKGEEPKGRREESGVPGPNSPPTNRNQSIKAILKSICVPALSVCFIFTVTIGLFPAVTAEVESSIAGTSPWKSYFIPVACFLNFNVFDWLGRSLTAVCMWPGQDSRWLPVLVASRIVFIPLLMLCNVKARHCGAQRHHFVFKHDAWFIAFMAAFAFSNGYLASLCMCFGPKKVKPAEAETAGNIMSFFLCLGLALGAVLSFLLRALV

[2] = biological target: T2, es nucleoside transporter (Homo sapiens, UniProt Q99808); conditions: known from the art; cited from earlier work
T2 sequence (Q99808 1-456): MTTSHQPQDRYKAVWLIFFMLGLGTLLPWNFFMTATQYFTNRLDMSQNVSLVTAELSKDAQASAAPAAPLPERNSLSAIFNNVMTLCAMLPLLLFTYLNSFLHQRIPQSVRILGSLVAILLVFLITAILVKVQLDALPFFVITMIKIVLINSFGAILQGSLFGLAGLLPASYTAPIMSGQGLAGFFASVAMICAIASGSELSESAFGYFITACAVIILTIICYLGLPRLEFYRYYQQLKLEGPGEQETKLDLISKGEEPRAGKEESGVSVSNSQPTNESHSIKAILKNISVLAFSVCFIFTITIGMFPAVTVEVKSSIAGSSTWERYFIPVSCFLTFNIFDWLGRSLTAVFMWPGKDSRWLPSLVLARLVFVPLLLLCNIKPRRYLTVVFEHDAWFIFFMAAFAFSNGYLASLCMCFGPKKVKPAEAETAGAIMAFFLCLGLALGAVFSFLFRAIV

HL-60 cells = assay: Growth of HL-60 cells; conditions: 3 days of exposure; for effect on HL-60 cell growth: concentrations as high as 100 μM
[3] = biological target: T3, es nucleoside transporter (human HL-60 promyelocytic leukemia plasma membranes) (Homo sapiens, UniProt Q99808); assay: 3H-NBMPR binding to HL-60 plasma membranes; set-up: Bmax of 3H-NBMPR binding in presence of CrMCC: unit not given here; conditions: for IC50: 5 min pretreatment, 5 nM 3H-NBMPR 30 min, read-out: IC50 of inhibition of specific 3H-NBMPR binding
T3 sequence (Q99808 1-456): T2 sequence (Q99808 1-456)

[4] = Storage stability of lyophilized CrMCC; format: physicochemical; conditions: −20° C. in a desiccator
[5] = Hydrophobicity on C18 reversed-phase column; format: physicochemical; conditions: compared with cytidine and SMCC
Procedure: N-Succinimidyl 4-[N-maleimidomethyl]cyclohexane-1-carboxylate (SMCC) and cytidine were dissolved in anhydrous dimethysulfoxide (DMSO) separately prior reaction. The reaction started when these two reagents were mixed at room temperature and shielded from light. The molar concentration ratio of SMCC:cytidine in the mixture was 0.10 M:0.15 M with pH 7.5–8.0 in the reaction system. Within 4 hrs, CrMCC was found in the reaction mixture and can be separated from cytidine and SMCC by a C18 reversed-phase column (Resource RPC, Pharmacia) operated on a HPLC (AKTA Purifier, Pharmacia) using the absorbance wavelength of 300 nm. Cytidine was eluted by 100% water and CrMCC and SMCC were eluted by 15% acetonitrile in water with the flow rate 1.5 ml/min. […] Formation of CrMCC reached its near maximum after 48 hrs of reaction between SMCC and cytidine at 22–24° C. (FIG. 4). The area under the peak was calculated using a computer program UNICORN (version 2.0).

[6] = biological target: T4, es transport system in murine EL-4 cells (Mus musculus, UniProt Q9JIM1); assay: NEM inhibition of 3H-uridine transport in EL-4 cells (only es)
T4 sequence (Q9JIM1 1-460): T1 sequence (Q9JIM1 1-460)

[7] = biological target: T5, ei transport system in rat Morris 7777 cells (Rattus norvegicus, UniProt O54699); assay: NEM inhibition of 3H-uridine transport in Morris 7777 cells (only ei)
T5 sequence (O54699 1-456): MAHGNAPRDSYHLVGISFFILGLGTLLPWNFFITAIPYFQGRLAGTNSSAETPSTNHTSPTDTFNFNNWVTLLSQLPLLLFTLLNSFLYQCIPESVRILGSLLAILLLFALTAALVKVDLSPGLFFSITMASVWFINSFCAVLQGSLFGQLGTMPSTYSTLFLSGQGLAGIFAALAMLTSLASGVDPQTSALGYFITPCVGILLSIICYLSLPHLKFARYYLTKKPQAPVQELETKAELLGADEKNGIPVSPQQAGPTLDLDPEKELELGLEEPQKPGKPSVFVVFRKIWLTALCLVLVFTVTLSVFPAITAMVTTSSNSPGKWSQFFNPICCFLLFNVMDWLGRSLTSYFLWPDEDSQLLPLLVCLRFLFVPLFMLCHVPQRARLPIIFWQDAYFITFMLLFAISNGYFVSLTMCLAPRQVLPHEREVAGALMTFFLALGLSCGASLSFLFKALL

[8] = biological target: 5-HT receptor (3H-5-HT high and low affinity binding sites of murine brain membranes); assay: Inhibition of 3H-5-HT binding to murine brain membranes; conditions: 5 min pretreatment, 5 nM 3H-5-HT 30 min
Procedure: (§1) Purified murine brain membranes suspended in reaction buffer (0.13 M NaCl, 0.02 M NaHCO3, pH 7.0) were pretreated with graded concentrations of LBT3001 (▪), LBT3002 (□), LBT3004 (∘), and LBT3005 (●) for 5 min prior exposure to ^3H-5-HT (5 nM final concentration) for additional 30 min. The reaction was terminated by membrane vacuum filtration method. […] The results were plotted against control binding determined in the absence of inhibitors.

[9] = test system: T6, 5-HT receptor (3H-5-HT high and low affinity binding sites of murine brain membranes); assay: as above; conditions: for IC50: 5 min pretreatment, 5 nM 3H-5-HT 30 min
T6 construct: other: 5 min pretreatment, 5 nM 3H-5-HT 30 min
Procedure: as §1

[10] = 1 mM physiological nucleoside, 30 μM 3H-CrMCC

Compound: O=c1ccn([C@@H]2O[C@H](CO)[C@@H](O)[C@H]2O)c(=O)[nH]1 [uridine]
- inhibition of 3H-CrMCC binding [1, 10]: failed to inhibit
- protection of sulfhydryl group from NEM modification (es transporter protein; at 10 mM): incapable of protecting

Compound: COc1cc(C(=O)OCCCN2CCCN(CCCOC(=O)c3cc(OC)c(OC)c(OC)c3)CC2)cc(OC)c1OC [dilazep]
- rate of binding of reversible antagonists [2]: rapid and mostly completed within first minute of incubation
- protection of sulfhydryl group from NEM modification (es transporter protein; at 30 μM): incapable of protecting

Compound: 1-[[4-[(4-amino-1-β-D-ribofuranosyl-2(1H)-pyrimidione)carbonyl]cyclohexyl]methyl]-1H-pyrrole-2,5-dione [CrMCC]
- time needed to achieve maximum binding ([1]; 30 μM 3H-CrMCC): ≥ 5 min
- dissociation from binding sites after 20-fold dilution ([1]; 30 μM radioligand 10 min, then 20-fold dilution, room temperature, up to at least 60 min): little or no dissociation
- pH below which ligand-receptor complexes began to break down ([1]; buffers pH 0.85 to 7.5): below 3.5
- stability of 3H-CrMCC-receptor complexes ([1]; physiological pH, 20-fold dilution in buffer): very stable
- Kd ([1]; read-out: Kd of high affinity component, 3 to 800 μM 3H-CrMCC, 10 min): 23.8 ± 2.2 µM
- effect on HL-60 cell growth (HL-60 cells): little or no effect
- Bmax of 3H-NBMPR binding in presence of CrMCC ([3]; HL-60 membranes pretreated with 10 μM CrMCC 5 min): 0.59±0.01
- Bmax of 3H-NBMPR binding in presence of CrMCC ([3]; HL-60 membranes pretreated with 50 μM CrMCC 5 min): 0.30±0.01
- IC50 ([3]; HL-60 plasma membranes): 10 µM
- Ki ([3]; HL-60 plasma membranes, read-out: Ki (calculated) for 3H-NBMPR binding): 1 µM
- mode of inhibition of 3H-NBMPR binding ([3]; double reciprocal plot): non-competitive inhibition
- stability of activity on storage [4]: stable for at least three months
- hydrophobicity [5]: greater than that of cytidine but is less than that of SMCC

Compound: O=C(ON1C(=O)CCC1=O)C1CCC(CN2C(=O)C=CC2=O)CC1 (stereo not drawn) [SMCC, N-Succinimidyl 4-[N-maleimidomethyl]cyclohexane-1-carboxylate, reference compound]
- IC50 (HL-60 cells; read-out: IC50 on cell growth, HL-60 cells): < 0.5 µM
- IC50 ([3]; HL-60 plasma membranes): 100 µM

Compound: CCN1C(=O)C=CC1=O [NEM, N-Ethylmaleimide]
- IC50 [6]: ~100 µM
- IC50 [7]: ~1500 µM
- inhibition of 3H-CrMCC binding ([1]; 1 mM NEM, 30 μM 3H-CrMCC): as effective as 0.5 mM of CrMCC

Compound: O=C(NCCc1c[nH]c2ccc(O)cc12)C1CCC(CN2C(=O)C=CC2=O)CC1 (stereo not drawn) [LBT3005, 4-(2,5-dioxo-2,5-dihydro-pyrrol-1-yl-methyl)-cyclohexane carboxylic acid [2-(5-hydroxy-1H-indol-3-yl)-ethyl]-amide]
- IC50 [8]: 300 µM
- efficacy as irreversible binding compounds [9]: demonstrated efficacy as irreversible binding compounds
- IC50 [9]: 500 nM

Compound: Nc1ccn([C@@H]2O[C@H](CO)[C@@H](O)[C@H]2O)c(=O)n1 [cytidine]
- level of binding to HL-60 plasma membranes ([1]; 30 μM radioligand): low
- displacement of 3H-CrMCC from its binding sites ([1]; 1 mM in the dilution medium): failed to displace
- inhibition of 3H-CrMCC binding [1, 10]: failed to inhibit
- effect on HL-60 cell growth (HL-60 cells): little or no effect

Compound: Nc1ncnc2c1ncn2[C@@H]1O[C@H](CO)[C@@H](O)[C@H]1O [adenosine]
- inhibition of 3H-CrMCC binding [1, 10]: failed to inhibit

Compound: O=C1C=CC(=O)N1CCc1c[nH]c2ccc(O)cc12 [LBT3001, 1-[2-(5-hydroxy-1H-indol-3-yl)-ethyl]-pyrrole-2,5-dione]
- IC50 [8]: ~50 µM
- efficacy as irreversible binding compounds [9]: demonstrated efficacy as irreversible binding compounds
- IC50 [9]: ~1 nM

Compound: OCCN(CCO)c1nc(N2CCCCC2)c2nc(N(CCO)CCO)nc(N3CCCCC3)c2n1 [dipyridamole]
- inhibition of 3H-CrMCC binding ([1]; 20 μM es nucleoside transport inhibitor, 30 μM 3H-CrMCC): failed to inhibit
- protection of sulfhydryl group from NEM modification (es transporter protein; at 30 μM): incapable of protecting

Compound: O=C(CCN1C(=O)C=CC1=O)NCCc1c[nH]c2ccc(O)cc12 [LBT3004, 3-(2,5-dioxo-2,5-dihydro-pyrrol-1-yl)-N-[2-(5-hydroxyl-1H-indol-3-yl)-ethyl]-propionamide]
- IC50 [8]: ~50 µM
- efficacy as irreversible binding compounds [9]: demonstrated efficacy as irreversible binding compounds
- IC50 [9]: ~200 nM

Compound: OC[C@H]1O[C@@H](n2cnc3c(O)ncnc32)[C@H](O)[C@@H]1O [inosine]
- inhibition of 3H-CrMCC binding [1, 10]: failed to inhibit

Compound: O=C(CCCN1C(=O)C=CC1=O)NCCc1c[nH]c2ccc(O)cc12 [LBT3002, 4-(2,5-dioxo-2,5-dihydro-pyrrol-1-yl)-N-[2-(5-hydroxyl-1H-indol-3-yl)-ethyl]-butyramide]
- IC50 [8]: ~200 µM
- efficacy as irreversible binding compounds [9]: demonstrated efficacy as irreversible binding compounds
- IC50 [9]: ~0.03 nM
